Measured values reported in publication PMC9863002, “Amino Derivatives of Diaryl Pyrimidines and Azolopyrimidines as Protective Agents against LPS-Induced Acute Lung Injury” (Molecules, 2023).

Experiments:
[1] = test system: IL-6 release in LPS-stimulated primary murine peritoneal macrophages; test: Inhibition of IL-6 release in LPS-stimulated macrophages (ELISA); assay type: cell-based, C57bl/6j mice; details: Mus musculus, Peritoneal macrophage; LPS-stimulated (100 ng/mL E. coli LPS) peritoneal macrophages; n.a. = not active
Experimental: (§1) Peritoneal macrophages (PM) were isolated from the peritoneal exudate of 30 male C57bl/6j mice. To accumulate PM, 1 mL of 3% peptone solution was injected intraperitoneally. After 3 days, the mice were euthanized by cervical dislocation. Cells of peritoneal exudate were obtained by aseptic washing of the abdominal cavity with 5 mL of sterile Hanks’s solution (+4–6 °C) without calcium and magnesium ions. The total number and viability of cells were assessed in a Goryaev counting chamber (Russia) with a 0.4% trypan blue staining (Sigma-Aldrich, St. Louis, MO, USA). The cell concentration was adjusted to 1.0 × 10^6 cells/mL in DMEM (Gibco, Waltham, MA, USA) supplemented with 2 mM L-glutamine (Gibco), 10% heat-inactivated fetal bovine serum (BioClot, Bavaria, Germany), 100 U/mL penicillin, and […] streptomycin (Gibco) and plated 200 µL/well in 96-well transparent plates (SPL Life Sciences Co., Ltd., Pocheon-si, Republic of Korea). After 2 h at 37 °C in a humidified atmosphere with 5% CO2, the wells were washed to remove non-adherent cells. After 24 h of incubation, 20 µL of the supernatants were substituted with 20 µL of solutions of test compounds, followed by E. coli O127:B8 LPS (100 ng/mL final concentration) after 30 min. The experiments were run in 3 independent replicates.
(§2) The cell supernatant was collected and centrifuged at 1000× g for 20 min in a 2–16 PK centrifuge (Sigma, Osterode am Harz, Germany). The concentrations of IL-6 and TNF-alpha were determined by ELISA using commercial kits (Cloud-clone, Houston, TX, USA) with a microplate reader Infinite M200 PRO (Tecan, Grödig, Austria).

[2] = MTT cytotoxicity study; assay type: cell-based, C57bl/6j mice; details: male, C57bl/6j, mouse; peritoneal macrophages, 24 h incubation
Experimental: as §1
(§3) The activity of lactate dehydrogenase (LDH) in a cell culture medium served as a marker of membrane permeability and cell death. Aliquots of supernatants were taken after 24 h of inoculation with test compounds, mixed with 250 µL of […] NADH solution in 54 mM phosphate-buffered saline (pH 7.5). Then, 25 µL of a 6.48 mM pyruvate solution was added to the mixture. The optical density was followed at a wavelength of 340 nm for 20 min. The MTT test was performed 24 h after incubations of cells with tested compounds. Briefly, 20 µL of MTT solution was added to each well and incubated at 37 °C in a humidified atmosphere containing 5% CO2 for 4 h. The culture medium was removed, the cells were lysed, and formazan crystals were dissolved in 150 µL DMSO. The plates were shaken at room temperature for 10 min, and the optical density was measured in a microplate reader Infinite M200 PRO (Tecan, Grödig, Austria) at a wavelength of 565 nm.

[3] = test system: NO synthesis in LPS-stimulated primary murine peritoneal macrophages; test: Inhibition of NO synthesis in LPS-stimulated macrophages (Griess); assay type: cell-based, C57bl/6j mice; details: Mus musculus, Peritoneal macrophage; LPS-stimulated (100 ng/mL E. coli LPS) peritoneal macrophages, supernatants after 22 h; n.a. = not active
Experimental: as §1
The accumulation of the nitrite anion (a stable end product of NO decomposition) in supernatants was determined using a standard Griess reagent. Briefly, 50 µL of supernatants were collected 22 h after incubation of PM, and the test and control compounds were mixed with 50 µL of 1% sulfonamide in 2.5% H3PO4 and 50 µL of 0.1% N-(1-naphthyl) ethylenediamine in 2.5% H3PO4. After incubation at 23 °C for 10 min in an orbital shaker, the optical density was determined at a wavelength of 550 nm with a microplate reader Infinite M200 PRO (Tecan, Grödig, Austria).

[4] = test system: LPS-induced acute lung injury in C57BL/6J mice; test: LPS-induced acute lung injury: biochemical markers of inflammation (IL-6, lung permeability index); assay type: in vivo; details: 6e 30 mg/kg i.p., 24 h after LPS
Experimental: as §2
(§4) The randomization of C57BL/6J mice was performed by body weight and motor activity in an open field test. […] The control animals received an equal volume of the vehicle. After 1 h, the mice were anesthetized with isoflurane inhalation until their breathing rate was decreased. The mice were suspended by the front incisors on an inclined surgical table, the tongue was pulled out with narrow curved tweezers, and 1 mg/mL of E. coli O127:B8 LPS (Sigma-Aldrich, St. Louis, MO, USA) in 1 mL/kg sterile saline was instilled into the back of the oropharynx. Intact control animals received an equal volume of sterile saline similarly.
(§5) The mice were anesthetized with 500 mg/kg chloral hydrate (Sigma-Aldrich, St. Louis, MO, USA) intraperitoneally 24 h after LPS administration. Blood was taken by intracardiac puncture in test tubes with heparin. The blood samples were centrifuged at 1000× g and 4 °C for 15 min on a 2–16 PK centrifuge (Sigma, Germany), and plasma was separated and stored at −80 °C until the assay. Thoracotomy was performed, the ligature was applied to the left bronchus and the trachea was cannulated with a 20 G needle. The right lung was washed twice with 0.7 mL of warm sterile saline. After combining aliquots, the bronchoalveolar lavage (BAL) was centrifuged at 800× g and 4 °C for 10 min. The supernatant was separated and stored at −80 °C until the assay. The residual cell pellet was resuspended in 50 µL of PBS for further study. The left lung was washed in saline and placed in 10% buffered formalin for morphological evaluation.
The concentration of total protein in BAL supernatants was determined spectrophotometrically with the pyrogallol red method, and the protein in the blood plasma was determined with the biuret method using commercial kits (Vital, Saint Petersburg, Russia) and bovine serum albumin as the standard. The lung permeability index was calculated as the protein concentration in the BAL to plasma ratio.

[5] = test system: LPS-induced acute lung injury in C57BL/6J mice; test: LPS-induced acute lung injury: open field test; assay type: in vivo; details: 6e 30 mg/kg i.p., within 24 h after LPS; for motor activity in the open field test, in words: dexamethasone 5 mg/kg
Experimental: as §4
The animals were placed in the center of a round open field with an arena of 44 cm diameter and 32 cm wall height under 300 lux lighting. During 5 min of observation, horizontal motor activity, vertical motor activity, time spent in the central part, the number of exits to the central part, and exploratory activity parameters were recorded. Body temperature was determined rectally.

[6] = test system: LPS-induced acute lung injury in C57BL/6J mice; test: LPS-induced acute lung injury: histological study; assay type: in vivo; details: 24 h after LPS; for Mean Injury Score (semi-quantitative morphological score of lung tissue damage): score 0-3, dexamethasone 5 mg/kg, 6e 30 mg/kg i.p. 1 h before oropharyngeal LPS
Experimental: as §4, §5
The sections were examined under a light microscope (Zeiss, Germany) by a double-blind method.

[7] = test system: LPS-induced acute lung injury in C57BL/6J mice; test: LPS-induced acute lung injury: leukocyte markers in blood, BAL and spleen; assay type: in vivo; details: dexamethasone 5 mg/kg, 6e 30 mg/kg i.p.; 24 h after LPS
Experimental: as §4, §5
The total number of leukocytes in heparinized blood was determined after staining with methylene blue in Goryaev’s counting chamber at ×100 magnification. Smears of blood and BAL cell pellets were air-dried, fixed according to May–Grunwald for 3 min, and stained according to Romanowsky–Giemsa. After 30 min, the slides were washed, air-dried, and examined with an immersion objective (×1000 total magnification). On each slide, a total of at least 100 cells were calculated.

[8] = test system: phagocytic activity of C57bl/6j peritoneal macrophages; test: Phagocytosis assay (yeast); assay type: cell-based, C57bl/6j mice; details: 72 h of incubation
Experimental: Peritoneal macrophages of C57bl/6j mice were cultured in a 24-well plate at a volume of 500 µL/well (1 × 10^5 cells/mL) for 24 h. Test compounds or DMSO were added to wells in triplicate followed by 50 µL of 1% yeast suspension, and the plates were incubated for 40 min. After 24 or 72 h, the medium was removed. The cells were fixed with May–Grunwald methanol dye and stained with Azur–Eosin in Romanovsky’s modification for 45 min at room temperature, washed, air-dried, and analyzed using a microscope Mikmed-6 (Russia), equipped with a digital camera. The study was performed in three technical replicates and two series; 100 macrophages were processed in each sample to count the captured yeast cells. Macrophage spreading was assessed as a number of pseudopodia.

[9] = test system: peritoneal macrophages; test: MTT cytotoxicity study; assay type: cell-based, C57bl/6j mice
Experimental: as §1, §3

Compound	IC50 [1]	IC50 [3]	CC50 at 24 h [2]	also measured
CSc1nc(-c2ccc(N)cc2)cc(-c2ccc(N)cc2)n1 [Compound 6g]	> 100 µM	0.12 µM	> 100 µM	
Cc1nc(-c2ccc(N)cc2)cc(-c2ccc(N)cc2)n1 [Compound 6e]	18.4 µM	16.2 µM	> 100 µM	lung permeability index, in words ([4]; BAL to plasma protein ratio): preserving the vascular permeability at intact levels; markers of inflammation and lung damage (IL-6 in BAL and plasma, alveolar vessel permeability), in words ([4]; dexamethasone 5 mg/kg): normalized these markers of inflammation and lung damage; plasma IL-6 concentration, in words ([4]; dexamethasone 5 mg/kg): normalized it to intact levels; exploratory behavior in the open field test, in words [5]: improved; motor activity in the open field test, in words [5]: increased the motor activity of mice but was inferior to dexamethasone activity; histological inflammatory lesions of the lung, in words ([6]; 6e 30 mg/kg i.p., H&E): limited inflammatory lesions; Mean Injury Score (semi-quantitative morphological score of lung tissue damage) [6]: 1.83; BAL: ratio of segmented neutrophils to monocytes, in words [7]: amelioration of this ratio; spleen lymphocytes (systemic immunosuppression), in words [7]: preserved normal content of spleen lymphocytes; phagocytic capacity (number of yeast cells per macrophage), in words [8]: retains a nearly normal phagocytic capacity; decrease of the phagocytic index ([8]; vs DMSO): 32%
Cc1nc(-c2ccccc2)cc(-c2ccc(N)cc2)n1 [Compound 6b]	2.18 µM	21.1 µM	65.6 µM	
C[C@@H]1C[C@H]2[C@@H]3CCC4=CC(=O)C=C[C@]4(C)[C@@]3(F)[C@@H](O)C[C@]2(C)[C@@]1(O)C(=O)CO [Dexamethasone, reference compound]	2.5 µM	23.4 µM	97.4 µM	plasma IL-6 concentration, in words ([4]; dexamethasone 5 mg/kg): normalized it to intact levels; motor activity in the open field test, in words [5]: corrected by dexamethasone; Mean Injury Score (semi-quantitative morphological score of lung tissue damage) [6]: 1.33; blood: recruitment of segmented neutrophils at the expense of lymphocytes, in words [7]: corrected by dexamethasone; spleen lymphocytes (systemic immunosuppression), in words [7]: significantly decreased proliferation of spleen lymphocytes; macrophage phagocytic activity (number of phagocytes), in words [8]: reducing both the number of phagocytes; phagocytic capacity (number of yeast cells per macrophage), in words [8]: reducing both the number of phagocytes and their phagocytic capacity
CCOC(=O)C1=C(C)Nc2ncnn2C1c1ccc(N)cc1 (centres unmarked) [Compound 11b]			> 100 µM	
Cc1nc(-c2ccc(N)cc2)cc(-c2ccc(F)cc2)n1 [Compound 6c]	34.9 µM	0.37 µM	> 100 µM	
Cc1nc(-c2ccc(N)cc2)cc(-c2cccc(N)c2)n1 [Compound 6d]			> 100 µM	
CCOC(=O)C1=C(C)Nc2ncnn2C1c1cccc(N)c1 (centres unmarked) [Compound 11a]			> 100 µM	
Cc1nc(-c2ccccc2)cc(-c2ccccc2N)n1 [Compound 6a]			> 100 µM	cytotoxicity in the MTT test, in words [9]: pronounced cytotoxicity; macrophage phagocytic activity (number of phagocytes), in words [8]: preserve macrophage phagocytic activity; phagocytic capacity (number of yeast cells per macrophage), in words [8]: significantly suppressed macrophage phagocytic capacity; decrease of the mean number of phagocytosed particles ([8]; vs DMSO): 35%
Nc1ccc(-c2cc(-c3ccc(N)cc3)nc(N)n2)cc1 [Compound 6f]		42.9 µM	96.1 µM	

More lines, main results first:

IC50 [1]	IC50 [3]	Compound	CC50 at 24 h [2]	also measured
	323 µM	CCOC(=O)C1=C(C)NC(C)=NC1c1cccc(N)c1 (centres unmarked) [Compound 10a]	> 100 µM	
14.9 µM	0.37 µM	Nc1ccc(-c2cc(-c3ccc(F)cc3)n3ncnc3n2)cc1 [Compound 7a]	> 100 µM	
31.4 µM	45.3 µM	Nc1ccc(-c2cc(-c3cccc(N)c3)n3ncnc3n2)cc1 [Compound 7b]	> 100 µM	
	71.8 µM	CCOC(=O)C1=C(C)NC(C)=NC1c1ccc(N)cc1 (centres unmarked) [Compound 10b]	178 µM	
